What was measured:
B16 melanoma cells = assay: Cytotoxic (CTL) activity of spleen cells against autologous tumour cells, 51Cr-release assay; details: for CTL % cytotoxicity: E/T ratio 25:1
Description: Mice were sacrificed by cervical dislocation on day 14 after tumour inoculation.
In vitro-passaged YAC-1 cells (a Moloney-virus induced mouse T cells lymphoma of A/SN origin), and in vivo-passaged B16 melanoma cells, were used as target cells in a chromium-release assay. B16 melanoma cells were obtained from tumour-bearing mice, seeded in cell-culture flasks (Falcon, Becton Dickinson and Co., Plymouth, England) and used within the first week of culture in CM. B16 and YAC-1 cell lines were obtained from the laboratory collection, and were originally obtained from the American Tissue Culture Collection (ATCC).
The cytotoxic activity of the effector cells collected from individual mice was measured by a standard 4-hour ^51Cr-release assay. Briefly, target cells were harvested from the cultures, washed twice, resuspended at 5×10^6 cells in 0.9 ml of CM and labelled with 100 μCi (^51Cr) sodium chromate (New England Nuclear, Boston, Mass.) for 1 hour at 37° C. in a 5% CO2 incubator. […] The effector cells suspension was added to quadruplicate wells to give three E/T ratios (i.e. 100:1, 50:1, 25:1) in a final volume of 200 μl per well. The plates were then incubated for 4 hours at 37° C. in a 5% CO2 incubator, 100 μl of supernatants were collected from each well, and the radioactivity was measured using a gamma counter. Total mean cytotoxicity±S.E.M. were calculated from quadruplicate cpm values from individual spleens.
It has been tested from spleen cells from normal and tumour-bearing mice for specific cytotoxic activity against autologous tumour cells using in-vivo passaged B16 melanoma cells as target.

PROb cells = assay: PROb i.p. rat colon cancer model, 5-FU combined with OM-174: carcinomatosis classes, ascites, survival; assay type: in vivo; details: day 61
Description: On day 0 (D0), 106 PROb cells were injected i.p. to each rat. 5-FU was administered i.p. at the dose of 30 mg/kg on days 7 and 14. OM-174 was injected at the dose of 1 mg/kg i.v. from day 21 three times a week for a total of 10 injections.
All rats (controls and treated) were sacrificed by CO2 on day 61. The efficacy of the treatment was determined by read-outs such as survival (FIG. 5) and measure of the classes of cancer given depending on the number and the size of the nodules, and also by ascites measurements. Carcinomatoses were evaluated blindly. As it is impossible to measure the volume of a carcinomatosis, they were classified according to the number and diameter of the nodules: • Class 0: no visible nodule • Class 1: some countable nodules with a diameter from 0.1 to 0.3 cm • Class 2: many uncountable nodules with a diameter from 0.1 to 0.3 cm • Class 3: some nodules with a diameter of 1 cm invade the peritoneal cavity • Class 4: the cavity is completely invaded by tumor masses of several cm.
The ascite volume was measured by double weights of the rats.

EMT-6 cells = assay: Direct radiosensitisation of EMT-6 cells, 8-day colony formation assay; assay type: cell-based, mouse
Description: Murine mammary adenocarcinoma EMT-6 cells were cultured in RPMI medium+10% bovine calf serum in plastic flasks. EMT-6 monolayer cultures grown to early confluence were exposed to OM-174 for 16 hours in both conditions (21% and 1% oxygen). After treatment with OM-174, nitrite determination using the classical Griess method was performed. Values were normalized for 200'000 cells per well.
Cells were then collected by trypsinization and the radioresponse was estimated as described previously (Van der Berge et al., 2001) Briefly, micropellets (0.5×10^6 cells) were produced in conical tubes by centrifugation at 300 g for 5 min. Metabolic oxygen depletion in micropellets was induced by incubation at 37° C. for 3 minutes prior to radiation. Micropellets were irradiated with a linear accelerator at a rate of 2 Gy per min and the survival fraction (SF) after 5, 10, 15, and 20 Gy was measured by a 8-day colony formation assay.

CCCCCCCCCCCC(=O)O[C@H](CCCCCCCCCCC)CC(=O)N[C@@H]1C(O)[C@H](OP(=O)(O)O)C(CO)O[C@H]1OCC1O[C@H](OP(=O)(O)O)C(NC(=O)C[C@H](O)CCCCCCCCCCC)C(O)[C@@H]1O (stereo partly shown) [OM-174]
CTL % cytotoxicity (B16 melanoma cells; B16 tumour-bearing mice, day 14, CY 200 mg/Kg i.p. day 7, OM-174 1 mg/kg i.p. days 8 and 13, mean ± S.E.): 5.6 ± 0.9%
CTL % cytotoxicity (B16 melanoma cells; normal mice): <1%
Cytotoxic activity against autologous tumour cells (in words) (B16 melanoma cells; tumour-bearing mice): marked stimulation of CTL activity
Increase of CTL activity with respect to tumour controls (B16 melanoma cells; tumour-bearing mice): two-fold increase
Number of rats in carcinomatosis class 0 (PROb cells; Class 0: no visible nodule, 5-FU 30 mg/kg i.p. days 7 and 14, OM-174 1 mg/kg i.v. from day 21, 10 injections): 2
Number of rats in carcinomatosis class 1 (PROb cells; Class 1: some countable nodules with a diameter from 0.1 to 0.3 cm): 3
Number of rats in carcinomatosis class 2 (PROb cells; Class 2: many uncountable nodules with a diameter from 0.1 to 0.3 cm): 2
Number of rats in carcinomatosis class 3 (PROb cells; Class 3: some nodules with a diameter of 1 cm invade the peritoneal cavity): 2
Number of rats in carcinomatosis class 4 (PROb cells; Class 4: the cavity is completely invaded by tumor masses of several cm): 1
Carcinomatosis classes versus Control group (Mann-Whitney test) (PROb cells): significant difference
Ascites (PROb cells; measured by double weights of the rats): 1 mL
Direct radiosensibilizing effect (in words, FIG. 7) (EMT-6 cells; 21% versus 1% oxygen): directly radiosensibilizing agent for cancer cells only in hypoxic conditions
Lowering of the radiation dose necessary to kill 90% of the cells versus absence of OM-174 (EMT-6 cells; hypoxic conditions, at either 3 or 30 mg/ml (FIG. 7)): 1.67

Reference: US20090214669A1, “Combination anticancer therapy and pharmaceutical compositions therefore” (priority 2004, published 2009)
